{
  "source": "ChEMBL document CHEMBL1201862",
  "about": "“PubChem BioAssay data set” (2004)",
  "key": {"[1]": {"experiment": "cytotoxicity toward DRD oncogenic fibroblasts, dose response, cell-based, non-viral oncogenic, luminescence (AID 1934)", "assay_type": "functional", "conditions": "Homo sapiens"}, "[2]": {"experiment": "inhibitors of firefly luciferase expression or activity, dose response, H4 neuroglioma cells, luminescence (AID 1990)", "assay_type": "functional, cell-based"}, "[3]": {"experiment": "inhibitors of SNCA 5'UTR-driven reporter translation, confirmation, H4 neuroglioma cells, luminescence (AID 1988)", "assay_type": "functional, cell-based"}, "BJ [4]": {"tested_on": "BJ", "experiment": "cytotoxicity toward BJ-TERT-LT-ST fibroblasts, dose response, cell-based, RAS-independent, luminescence (AID 1935);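 further: BJ fibroblasts immortalized with TERT plus LT and ST oncogenes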", "assay_type": "functional", "conditions": "Homo sapiens"}, "Cytochrome P450 1A2": {"biological_target": "T1, Cytochrome P450 1A2 (Homo sapiens, UniProt P05177)", "T1 sequence (P05177 whole entry)": "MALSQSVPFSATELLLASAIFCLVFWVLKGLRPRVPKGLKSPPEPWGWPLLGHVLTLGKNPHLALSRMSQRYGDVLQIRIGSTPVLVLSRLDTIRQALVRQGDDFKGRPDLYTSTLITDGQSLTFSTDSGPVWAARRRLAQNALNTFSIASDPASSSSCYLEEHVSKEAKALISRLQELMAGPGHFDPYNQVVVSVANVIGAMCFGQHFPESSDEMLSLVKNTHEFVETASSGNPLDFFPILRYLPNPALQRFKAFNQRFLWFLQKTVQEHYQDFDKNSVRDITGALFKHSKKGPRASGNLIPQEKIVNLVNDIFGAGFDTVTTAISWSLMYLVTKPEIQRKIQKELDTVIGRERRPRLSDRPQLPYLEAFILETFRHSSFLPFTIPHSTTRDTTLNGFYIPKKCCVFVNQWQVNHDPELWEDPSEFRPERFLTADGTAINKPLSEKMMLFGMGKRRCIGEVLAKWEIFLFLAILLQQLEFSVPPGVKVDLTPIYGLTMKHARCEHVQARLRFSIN"}, "[5]": {"experiment": "luciferase reporter signal reduction – luminescence, H4-C neuroglioblastoma cells, dose response (AID 2458);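 further: H4 neuroglioblastoma cells stably carrying a luciferase reporter gene fusion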", "assay_type": "functional, cell-based"}, "[6]": {"experiment": "inhibitors of SNCA 5'UTR-driven translation, confirmation, luminescence, H4 neuroglioblastoma cells, dose confirmation (AID 2454);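 further: potency for inhibition of the luciferase signal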", "assay_type": "functional, cell-based"}, "BJ [7]": {"tested_on": "BJ", "experiment": "cells", "assay_type": "functional, cell-based", "conditions": "Homo sapiens"}, "[8]": {"experiment": "cytotoxicity in HEK-293T NF-kB-Luc cells, dose response, cytotoxicity control for B/T-cell NF-kB inhibitor project, cell-based, uHTS hits (AID 489019);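 further: IC50 reflects cytotoxicity as loss of cell viability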", "assay_type": "functional"}, "Paired box protein Pax-8": {"biological_target": "Paired box protein Pax-8 (Homo sapiens, UniProt Q06710)", "sequence (Q06710 whole entry)": "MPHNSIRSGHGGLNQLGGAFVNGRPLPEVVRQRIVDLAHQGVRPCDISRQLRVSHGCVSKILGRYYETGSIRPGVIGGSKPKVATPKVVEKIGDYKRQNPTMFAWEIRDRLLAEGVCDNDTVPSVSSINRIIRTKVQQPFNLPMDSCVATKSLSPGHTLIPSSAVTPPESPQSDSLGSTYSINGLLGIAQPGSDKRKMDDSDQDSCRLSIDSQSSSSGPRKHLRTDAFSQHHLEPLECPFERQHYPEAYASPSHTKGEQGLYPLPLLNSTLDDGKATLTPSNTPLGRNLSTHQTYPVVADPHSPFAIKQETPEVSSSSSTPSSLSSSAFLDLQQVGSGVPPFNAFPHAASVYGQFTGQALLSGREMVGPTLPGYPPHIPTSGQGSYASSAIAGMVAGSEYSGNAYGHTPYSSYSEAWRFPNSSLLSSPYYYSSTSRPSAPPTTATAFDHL", "experiment": "inhibitors of PAX8-driven TPO luciferase reporter, dose response, RMG-I cells, cherry-pick (AID 687027);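 further: luciferase reporter driven by Pax8 target thyroperoxidase promoter measured by SteadyGlo luminescence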", "assay_type": "functional, cell-based"}, "cells [9]": {"experiment": "cells", "assay_type": "functional, cell-based"}, "BJ [10]": {"tested_on": "BJ", "experiment": "cytotoxicity toward BJ-TERT fibroblasts, dose response, cell-based, RAS-independent, luminescence (AID 1933)", "assay_type": "functional", "conditions": "Homo sapiens"}, "Jurkat": {"tested_on": "Jurkat", "experiment": "antigen receptor-induced NF-kB inhibitors, dose response, Jurkat, luciferase reporter, luminescence, B- and T-cell (AID 489004);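 further: NF-kB luciferase reporter Jurkat cells stimulated with PMA plus ionomycin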", "assay_type": "functional, cell-based", "conditions": "Homo sapiens"}, "[11]": {"tested_on": "Streptococcus sp. 'group A'", "experiment": "growth inhibition of control SK(-) GAS strain, dose response, counter-screen for streptokinase expression inhibitor project, luminescence, kanamycin, BacTiterGlo, confirmation (AID 1900)", "assay_type": "functional, organism-based"}, "cells [12]": {"experiment": "cells", "assay_type": "functional, cell-based", "remark": "listed apart in the source"}, "[13]": {"experiment": "cytotoxicity in MIN6 insulinoma cells, dose response, cytotoxicity control, cell-based, mouse insulinoma (AID 2122);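 further: confirmatory high-throughput counterscreen run to flag cytotoxic compounds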", "assay_type": "functional"}, "Streptococcus": {"tested_on": "Streptococcus", "experiment": "Group A Streptococcus viability loss, dose response, counter-screen for streptokinase expression inhibitor project, luminescence, BacTiterGlo (AID 1915)", "assay_type": "functional, organism-based"}, "[14]": {"experiment": "C. albicans growth with fluconazole, confirmation, fluorescence, retest (AID 2467)", "assay_type": "functional, cell-based"}, "[15]": {"experiment": "cytotoxicity in KRAS-transformed pancreatic duct cells, primary screen, cell-based, fluorescence, HTS (AID 431)", "assay_type": "functional", "conditions": "Homo sapiens"}, "[16]": {"biological_target": "ATP-dependent molecular chaperone HSP82 (Candida albicans (strain WO-1) (Yeast), UniProt C4YTQ8)", "sequence (C4YTQ8 whole entry)": "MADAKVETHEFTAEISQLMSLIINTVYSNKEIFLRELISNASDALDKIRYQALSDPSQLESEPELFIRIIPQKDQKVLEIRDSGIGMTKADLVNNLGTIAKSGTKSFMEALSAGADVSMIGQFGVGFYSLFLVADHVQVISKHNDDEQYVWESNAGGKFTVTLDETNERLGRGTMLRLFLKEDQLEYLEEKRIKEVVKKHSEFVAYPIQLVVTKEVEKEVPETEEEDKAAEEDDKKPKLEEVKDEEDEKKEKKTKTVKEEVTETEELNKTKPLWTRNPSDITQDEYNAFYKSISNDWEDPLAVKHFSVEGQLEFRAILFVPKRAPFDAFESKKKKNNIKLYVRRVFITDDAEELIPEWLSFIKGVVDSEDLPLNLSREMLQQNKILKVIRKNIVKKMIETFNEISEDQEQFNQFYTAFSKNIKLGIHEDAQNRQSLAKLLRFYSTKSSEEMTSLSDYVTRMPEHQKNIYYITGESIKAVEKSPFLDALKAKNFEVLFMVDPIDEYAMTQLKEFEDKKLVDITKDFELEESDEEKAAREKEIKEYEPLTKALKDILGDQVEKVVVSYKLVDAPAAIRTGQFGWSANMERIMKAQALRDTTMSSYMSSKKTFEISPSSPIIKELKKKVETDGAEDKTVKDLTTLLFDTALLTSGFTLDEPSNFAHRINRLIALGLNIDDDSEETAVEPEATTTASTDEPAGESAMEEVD", "experiment": "loss of DOC-induced GRE-beta-galactosidase reporter signal, dose response, Hsp90 inhibitor project, S. cerevisiae, luminescence (AID 2400);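 further: beta-galactosidase luminescence from glucocorticoid response element reporter as proxy for Hsp90 function; inhibitor potency where signal loss means Hsp90 inhibition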", "assay_type": "functional, cell-based"}, "Vero": {"tested_on": "Vero", "experiment": "cells", "assay_type": "functional, cell-based", "conditions": "Chlorocebus sabaeus"}, "[17]": {"experiment": "Counterscreen for AddAB inhibitors: absorbance-based bacterial cell-based high throughput dose response assay for inhibitors of bacterial viability. [Related pubchem assays (depositor defined):AID435030, AID449728, AID449731, AID488942, AID488955, AID488956]", "assay_type": "functional"}, "[18]": {"experiment": "insulin promoter down-regulators in MIN6 cells, imaging, high-content screening, mouse beta cells (AID 1628)", "assay_type": "functional"}, "[19]": {"experiment": "NIH-3T3 fibroblast cytotoxicity, dose response, cytotoxicity control, cell-based, fluorescence, Alamar Blue, secondary assay (AID 2327);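 further: NIH-3T3 mouse fibroblasts cultured with fluconazole at 8 µg/mL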", "assay_type": "functional"}, "[20]": {"experiment": "cytotoxicity in HPDE-C7 cells, cell-based, fluorescence, HTS (AID 430)", "assay_type": "functional", "conditions": "Homo sapiens"}, "Exodeoxyribonuclease V": {"biological_target": "Exodeoxyribonuclease V (Escherichia coli (strain K12), UniProt P04993+P07648+P08394)", "experiment": "E. coli RecBCD inhibitors, dose response, counter-screen for AddAB inhibitor project, absorbance, V66 E. coli, mutant T4 phage (AID 492957)", "assay_type": "functional, cell-based, Escherichia coli str. K-12 substr. MG1655"}, "cells [21]": {"experiment": "cells", "assay_type": "functional, cell-based", "remark": "listed apart in the source"}, "[22]": {"biological_target": "Heat shock protein HSP 90-alpha (Homo sapiens, UniProt P07900)", "assay_type": "functional, organism-based"}, "HEK293": {"tested_on": "HEK293", "experiment": "inhibitors of LMP1-driven NF-kB reporter, dose response, cell-based, HEK293, luciferase, cherry-pick (AID 588343)", "assay_type": "functional", "conditions": "Homo sapiens"}, "[23]": {"biological_target": "T2, Serine/threonine-protein phosphatase (Candida dubliniensis (strain CD36 / CBS 7987 / NCPF 3949 / NRRLY-17841) (Yeast), UniProt B9W6M3)", "T2 sequence (B9W6M3 whole entry)": "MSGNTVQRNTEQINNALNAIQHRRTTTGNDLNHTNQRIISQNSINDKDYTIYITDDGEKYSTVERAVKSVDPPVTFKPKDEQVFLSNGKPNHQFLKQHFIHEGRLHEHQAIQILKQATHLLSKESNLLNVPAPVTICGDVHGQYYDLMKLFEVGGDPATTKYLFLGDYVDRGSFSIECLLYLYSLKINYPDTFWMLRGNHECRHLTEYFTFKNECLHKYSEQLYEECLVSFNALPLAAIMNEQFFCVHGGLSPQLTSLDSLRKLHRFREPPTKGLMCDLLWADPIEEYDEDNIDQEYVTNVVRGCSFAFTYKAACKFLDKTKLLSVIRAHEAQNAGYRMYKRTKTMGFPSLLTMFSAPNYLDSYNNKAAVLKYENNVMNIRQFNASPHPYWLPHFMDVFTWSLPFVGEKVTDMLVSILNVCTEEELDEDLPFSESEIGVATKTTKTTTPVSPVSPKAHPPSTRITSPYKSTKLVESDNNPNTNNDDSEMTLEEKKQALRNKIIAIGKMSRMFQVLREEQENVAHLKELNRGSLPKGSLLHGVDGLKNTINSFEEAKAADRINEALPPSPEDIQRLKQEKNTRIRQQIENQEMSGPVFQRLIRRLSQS", "experiment": "calcineurin pathway inhibitors in yeast reporter, dose response, S. cerevisiae, CDRE-lacZ, luminescence, secondary (AID 2388);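 further: yeast reporter cells carrying a calcineurin-responsive lacZ construct stimulated with calcium chloride; luminescent beta-galactosidase reporter signal in whole cells rather than isolated phosphatase activity; potency for inhibition where a drop in reporter signal means calcineurin blockade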", "assay_type": "functional, cell-based"}, "[24]": {"biological_target": "T3, Carboxy-terminal domain RNA polymerase II polypeptide A small phosphatase 1 (Homo sapiens, UniProt Q9GZU7)", "T3 sequence (Q9GZU7 whole entry)": "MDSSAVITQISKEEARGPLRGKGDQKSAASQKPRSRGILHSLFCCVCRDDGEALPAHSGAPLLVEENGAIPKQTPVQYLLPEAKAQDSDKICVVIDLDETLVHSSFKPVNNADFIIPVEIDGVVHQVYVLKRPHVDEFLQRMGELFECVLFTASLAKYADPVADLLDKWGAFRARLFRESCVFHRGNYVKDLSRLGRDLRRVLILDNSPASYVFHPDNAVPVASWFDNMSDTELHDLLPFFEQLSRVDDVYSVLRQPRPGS", "experiment": "inhibitors of CTDSP1, concentration-response testing, biochemical assay, absorbance-based, actives from ultra-high-throughput screening (AID 540297)", "assay_type": "functional"}, "[25]": {"biological_target": "Beta-adrenergic receptor kinase 1 (Homo sapiens, UniProt P25098)", "sequence (P25098 whole entry)": "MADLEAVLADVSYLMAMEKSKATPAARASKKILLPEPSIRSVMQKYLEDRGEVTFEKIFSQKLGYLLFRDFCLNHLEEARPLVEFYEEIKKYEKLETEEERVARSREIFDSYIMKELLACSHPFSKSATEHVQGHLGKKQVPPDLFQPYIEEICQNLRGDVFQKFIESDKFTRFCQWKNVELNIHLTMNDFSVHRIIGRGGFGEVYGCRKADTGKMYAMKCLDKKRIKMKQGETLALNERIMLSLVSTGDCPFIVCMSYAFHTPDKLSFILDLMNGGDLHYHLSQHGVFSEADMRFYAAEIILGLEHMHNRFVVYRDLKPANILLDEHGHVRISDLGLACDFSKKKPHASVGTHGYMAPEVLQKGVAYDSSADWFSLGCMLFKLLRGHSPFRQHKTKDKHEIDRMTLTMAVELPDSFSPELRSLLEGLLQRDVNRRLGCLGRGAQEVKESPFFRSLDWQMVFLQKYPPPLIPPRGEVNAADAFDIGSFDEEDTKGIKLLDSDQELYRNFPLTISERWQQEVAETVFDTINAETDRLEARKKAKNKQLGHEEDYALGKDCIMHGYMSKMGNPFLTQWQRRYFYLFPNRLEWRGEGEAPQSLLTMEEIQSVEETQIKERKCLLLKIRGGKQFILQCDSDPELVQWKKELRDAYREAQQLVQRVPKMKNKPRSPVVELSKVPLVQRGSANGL", "experiment": "GRK2 inhibitors displacing RNA aptamer, dose response, biochemical, flow cytometry beads, FAM-aptamer, powder set 1 (AID 588720)"}, "Cytochrome P450 3A4": {"biological_target": "Cytochrome P450 3A4 (Homo sapiens, UniProt P08684)", "sequence (P08684 whole entry)": "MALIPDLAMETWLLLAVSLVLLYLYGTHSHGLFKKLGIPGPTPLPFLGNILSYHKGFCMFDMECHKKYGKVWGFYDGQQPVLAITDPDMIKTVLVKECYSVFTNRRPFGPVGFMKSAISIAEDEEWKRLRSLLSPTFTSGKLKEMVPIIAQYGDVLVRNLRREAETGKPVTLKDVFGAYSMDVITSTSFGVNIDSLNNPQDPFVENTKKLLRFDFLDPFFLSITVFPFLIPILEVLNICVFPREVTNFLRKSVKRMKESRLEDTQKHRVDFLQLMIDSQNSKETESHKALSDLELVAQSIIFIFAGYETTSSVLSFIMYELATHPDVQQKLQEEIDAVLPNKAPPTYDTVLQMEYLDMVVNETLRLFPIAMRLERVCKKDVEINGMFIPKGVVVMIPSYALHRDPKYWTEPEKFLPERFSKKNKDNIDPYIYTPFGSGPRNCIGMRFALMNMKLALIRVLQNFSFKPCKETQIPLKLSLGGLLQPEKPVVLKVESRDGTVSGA"}},
  "note": "The source made the active and inactive calls. For most assays here, no stated cut-off is given here; in the data, actives have a measured EC50 and inactives only a lower limit.",
  "data": [
    {"compound": "O=C(c1ccc(Br)cc1)c1cc([N+](=O)[O-])ccc1N1CCCCC1", "values": [
      {"measurement": "EC50", "setting": "[1]", "value": "0.694 µM (active)"},
      {"measurement": "EC50", "setting": "[2]", "value": "0.623 µM (active)"},
      {"measurement": "EC50", "setting": "[3]", "value": "< 0.1 µM (active)"},
      {"measurement": "EC50", "setting": "BJ [4]", "value": "0.464 µM (active)"},
      {"measurement": "AC50", "setting": "Cytochrome P450 1A2", "value": "2 µM (inconclusive)"},
      {"measurement": "EC50", "setting": "[5]", "value": "0.892 µM (active)"},
      {"measurement": "EC50", "setting": "[6]", "value": "> 12 µM (inconclusive)"},
      {"measurement": "EC50", "setting": "BJ [7]", "value": "1.12 µM (inconclusive)"},
      {"measurement": "IC50", "setting": "[8]", "value": "> 80 µM (inactive)"},
      {"measurement": "AC50", "setting": "Paired box protein Pax-8", "value": "2.73 µM (active)"},
      {"measurement": "EC50", "setting": "cells [9]", "value": "1.49 µM (active)"},
      {"measurement": "EC50", "setting": "BJ [10]", "value": "0.697 µM (active)"},
      {"measurement": "IC50", "setting": "Jurkat", "value": "> 80 µM (inactive)"}
    ]},
    {"compound": "Oc1c(C(Nc2nc3ccccc3s2)c2ccco2)ccc2cccnc12", "note": "(stereo not drawn)", "values": [
      {"measurement": "EC50", "setting": "[11]", "value": "1.76 µM (active)"},
      {"measurement": "EC50", "setting": "cells [12]", "value": "9.09 µM (active)"},
      {"measurement": "IC50", "setting": "[13]", "value": "0.896 µM (active)"},
      {"measurement": "EC50", "setting": "Streptococcus", "value": "5.98 µM (active)"},
      {"measurement": "EC50", "setting": "[14]", "value": "0.854 µM (active)"},
      {"measurement": "EC50", "setting": "[15]", "value": "6.19 µM (active)"},
      {"measurement": "EC50", "setting": "[16]", "value": "33.4 µM (active)"},
      {"measurement": "IC50", "setting": "Vero", "value": "> 25 µM (active)"},
      {"measurement": "IC50", "setting": "[17]", "value": "> 119 µM (inactive)"},
      {"measurement": "IC50", "setting": "[18]", "value": "1.21 µM (active)"},
      {"measurement": "EC50", "setting": "[19]", "value": "12.9 µM (active)"},
      {"measurement": "EC50", "setting": "[20]", "value": "8.6 µM (active)"},
      {"measurement": "IC50", "setting": "Exodeoxyribonuclease V", "value": "> 119 µM (inactive)"},
      {"measurement": "EC50", "setting": "cells [21]", "value": "> 350 µM (not active)"},
      {"measurement": "AC50", "setting": "[22]", "value": "24.1 µM (active)"},
      {"measurement": "AC50", "setting": "HEK293", "value": "6.93 µM (active)"},
      {"measurement": "EC50", "setting": "[23]", "value": "> 180 µM (inactive)"}
    ]},
    {"compound": "O=C(CCS(=O)(=O)c1ccc(Br)cc1)NCc1cccs1", "values": [
      {"measurement": "IC50", "setting": "[24]", "value": "48 µM (active)"},
      {"measurement": "EC50", "setting": "[25]", "value": "1.79 µM (active)"}
    ]},
    {"compound": "COCC(=O)N1CCC2(CC1)CN(C(c1ccccc1)c1ccccc1)C2", "values": [
      {"measurement": "AC50", "setting": "Cytochrome P450 3A4", "value": "inconclusive"}
    ]}
  ]
}
